The text below walks through data of PubChem BioAssay (NCI).

Each structure is given as a SMILES string.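 Briefly, cells in 96-well plates were exposed to five compound concentrations for 48 h, and endpoints were estimated by linear interpolation. GI50: concentration for 50% inhibition of growth. TGI denotes the concentration required for complete inhibition of growth.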 Where only a bound is given, the exact number is not on record here.

The first assay concerns OVCAR-4 ovarian. Briefly: NCI anticancer screen, dose series, 48 h.
Molecule `Cc1nnc2n1N=C(c1cc(F)c(Cl)cc1Cl)/C(=C/c1ccc(Cl)cc1)S2` yielded a TGI of 33.3 µM.

Consider `CC(O[Si](c1ccccc1)(c1ccccc1)C(C)(C)C)[C@H](NC(=O)OC(C)(C)C)C(=O)O[Si](c1ccccc1)(c1ccccc1)C(C)(C)C` (stereo partly drawn), for which the TGI stood at 16.5 µM.

`COc1ccc(-c2cc(-c3ccco3)c(C#N)c(=S)n2C2OC(COC(C)=O)C(OC(C)=O)C(OC(C)=O)C2OC(C)=O)cc1` (stereo not drawn) came in with a TGI of 10 µM.

The molecule `CCCCN1C(=O)CC2[C@@H]3CCc4cc(OC(C)=O)ccc4C3CC[C@]2(C)C1=O` (stereo partly drawn) had a TGI of over 10 µM.

The subject of another assay is SF-268 CNS. Briefly: NCI anticancer screen, dose series, 48 h.
The molecule `COc1ccc(C2CC(c3c(O)ccc4ccccc34)=NN2c2ccc([N+](=O)[O-])cc2[N+](=O)[O-])cc1OC` (stereo not drawn) came in with a TGI of over 100 µM.

Turning to `C=C1CC(COc2cc(=O)oc3ccccc23)(c2ccccc2)OC1=O` (stereo not drawn), the TGI came out at 29.7 µM.

In turn, `O=C(O)CSc1nnc(COc2ccc(Cl)cc2)n1-c1ccccc1` yielded a TGI of over 100 µM.

`CN(C)CCCOc1nc2c(c(=O)n(C)c(=O)n2C)n1C` (tested in a mixture with another compound) registered a TGI of over 100 µM.

As to `C[N+]1=C2[B-](C(C)(C)C)=[N+](C(C)(C)C)[B-]2(C(C)(C)C)[N+](C)=C2[B-](C(C)(C)C)=[N+](C(C)(C)C)[B-]21C(C)(C)C` (stereo not drawn), the TGI is over 100 µM.

`Brc1ccc(CCNCCN2CCCCC2)cc1` came in with a TGI of 33.3 µM.

Regarding `OC1C2[C@@H](O)CCCN2C[C@@H](O)[C@H]1O` (stereo partly drawn), the TGI is over 100 µM.

`COCOC1/C=C/CCCC#C[C@H](C)C(=O)CC1` (stereo partly drawn): the TGI worked out at 26.5 µM.

`COc1ccc2[nH]c(O)c(/C=c3/cc4c(c(-c5cc(OC)c(OC)c(OC)c5)n3)=Nc3ccccc3-4)c2c1`: the GI50 is 46.4 µM and the TGI is over 100 µM.

`CC[C@]1(Cc2ccc(OC)c(OC)c2)CN(S(=O)(=O)c2ccc(C)cc2)C[C@@H]1OC(C)=O` had a TGI of over 100 µM.

Turning to `CC(C)(C)c1ccc2c(c1)CNCCNCc1cc(C(C)(C)C)ccc1OCC1(CO2)COc2ccc(C(C)(C)C)cc2CNCCNCc2cc(C(C)(C)C)ccc2OC1`, the TGI was 5.12 µM.

Regarding `NCC1CCN(c2nc3ccccc3c3c2CCCC3)CC1`, the TGI is 22.7 µM.

Consider `CCN(CC)CCc1c2c(nc3ccccc13)C(=O)c1cccnc1C2=O`, for which the TGI was over 100 µM.

`Cc1c(F)c(N)c2c(=O)cc(-c3ccc(NC(=O)CN(C)C)c(F)c3)oc2c1F` came in with a TGI of over 100 µM.

In the case of `COc1ccccc1Nc1nc(N)nc(N)c1N=O`, the TGI is over 100 µM.

For `COc1cccc2c(N)c3cccc(C(=O)NCCN(C)C)c3nc12`, the TGI amounted to 0.51 µM.

`O=C(CCCCCCCCC(=O)NN1C(=O)/C(=C\c2ccc(O)c(O)c2)SC1c1ccc(Cl)cc1)NN1C(=O)/C(=C\c2ccc(O)c(O)c2)SC1c1ccc(Cl)cc1` (stereo not drawn) came in with a TGI of over 62.7 µM.

Regarding `O=C1/C(=C/c2ccccc2)N=C(c2ccccc2)N1n1c(-c2ccccc2)nc2ccccc2c1=O`, the TGI was over 100 µM.

`Oc1ccc(/C=C/c2cc(O)cc(O)c2)cc1` displayed a TGI of over 100 µM.

In the case of `O=C(O)c1c2c(cc3c1CC1(Cc4ccccc4C1)C3)CCC2`, the TGI was over 100 µM.

Molecule `Cc1nc(-c2ccc([N+](=O)[O-])cc2)cn2c1nc1ccccc12` gave a TGI of over 100 µM.

Molecule `Cc1nnc2n1N=C(c1cc(F)c(Cl)cc1Cl)/C(=C/c1ccc(Cl)cc1)S2` had a TGI of over 100 µM.

Molecule `CC(O[Si](c1ccccc1)(c1ccccc1)C(C)(C)C)[C@H](NC(=O)OC(C)(C)C)C(=O)O[Si](c1ccccc1)(c1ccccc1)C(C)(C)C` (stereo partly drawn) displayed a TGI of 31.1 µM.

For the molecule `COc1ccc(-c2cc(-c3ccco3)c(C#N)c(=S)n2C2OC(COC(C)=O)C(OC(C)=O)C(OC(C)=O)C2OC(C)=O)cc1` (stereo not drawn), the TGI turned out to be 23.5 µM.

With `CCCCN1C(=O)CC2[C@@H]3CCc4cc(OC(C)=O)ccc4C3CC[C@]2(C)C1=O` (stereo partly drawn), the TGI was over 10 µM.

In the next assay the test system is SK-MEL-2 melanoma. Put plainly: NCI anticancer screen, dose series, 48 h.
As for `COc1ccc(C2CC(c3c(O)ccc4ccccc34)=NN2c2ccc([N+](=O)[O-])cc2[N+](=O)[O-])cc1OC` (stereo not drawn), the TGI was over 65.1 µM.

Molecule `C=C1CC(COc2cc(=O)oc3ccccc23)(c2ccccc2)OC1=O` (stereo not drawn) showed a TGI of 2.33 µM.

Turning to `O=C(O)CSc1nnc(COc2ccc(Cl)cc2)n1-c1ccccc1`, the TGI is over 100 µM.

In the case of `CN(C)CCCOc1nc2c(c(=O)n(C)c(=O)n2C)n1C` (tested in a mixture with another compound), the TGI was over 100 µM.

Consider `C[N+]1=C2[B-](C(C)(C)C)=[N+](C(C)(C)C)[B-]2(C(C)(C)C)[N+](C)=C2[B-](C(C)(C)C)=[N+](C(C)(C)C)[B-]21C(C)(C)C` (stereo not drawn), for which the TGI was over 100 µM.

In the case of `Brc1ccc(CCNCCN2CCCCC2)cc1`, the TGI came to 34.5 µM.

The molecule `OC1C2[C@@H](O)CCCN2C[C@@H](O)[C@H]1O` (stereo partly drawn) showed a TGI of over 100 µM.

For `COCOC1/C=C/CCCC#C[C@H](C)C(=O)CC1` (stereo partly drawn), the TGI is 31.3 µM.

Consider `COc1ccc2[nH]c(O)c(/C=c3/cc4c(c(-c5cc(OC)c(OC)c(OC)c5)n3)=Nc3ccccc3-4)c2c1`, for which the GI50 is 15.9 µM and the TGI was over 100 µM.

In turn, `CC[C@]1(Cc2ccc(OC)c(OC)c2)CN(S(=O)(=O)c2ccc(C)cc2)C[C@@H]1OC(C)=O` displayed a TGI of over 100 µM.

For the molecule `CC(C)(C)c1ccc2c(c1)CNCCNCc1cc(C(C)(C)C)ccc1OCC1(CO2)COc2ccc(C(C)(C)C)cc2CNCCNCc2cc(C(C)(C)C)ccc2OC1`, the TGI was 2.89 µM.

In the case of `NCC1CCN(c2nc3ccccc3c3c2CCCC3)CC1`, the TGI worked out at 11.3 µM.

As to `CCN(CC)CCc1c2c(nc3ccccc13)C(=O)c1cccnc1C2=O`, the TGI was found to be 10.4 µM.

Take `Cc1c(F)c(N)c2c(=O)cc(-c3ccc(NC(=O)CN(C)C)c(F)c3)oc2c1F`: the TGI was over 100 µM.

`COc1ccccc1Nc1nc(N)nc(N)c1N=O` had a TGI of over 100 µM.

The molecule `COc1cccc2c(N)c3cccc(C(=O)NCCN(C)C)c3nc12` came in with a TGI of 1.05 µM.

Take `O=C(CCCCCCCCC(=O)NN1C(=O)/C(=C\c2ccc(O)c(O)c2)SC1c1ccc(Cl)cc1)NN1C(=O)/C(=C\c2ccc(O)c(O)c2)SC1c1ccc(Cl)cc1` (stereo not drawn): the TGI is over 61.8 µM.

`Oc1ccc(/C=C/c2cc(O)cc(O)c2)cc1` showed a TGI of over 100 µM.

`Cc1nc(-c2ccc([N+](=O)[O-])cc2)cn2c1nc1ccccc12` showed a TGI of 69.2 µM.

Consider `Cc1nnc2n1N=C(c1cc(F)c(Cl)cc1Cl)/C(=C/c1ccc(Cl)cc1)S2`, for which the TGI was 26.2 µM.

Take `CCCCN1C(=O)CC2[C@@H]3CCc4cc(OC(C)=O)ccc4C3CC[C@]2(C)C1=O` (stereo partly drawn): the TGI was over 10 µM.

For the next assay, the system named is SK-MEL-5 melanoma. Briefly: NCI anticancer screen, dose series, 48 h.
`COc1ccc(C2CC(c3c(O)ccc4ccccc34)=NN2c2ccc([N+](=O)[O-])cc2[N+](=O)[O-])cc1OC` (stereo not drawn) came in with a TGI of 30.2 µM.

Molecule `C=C1CC(COc2cc(=O)oc3ccccc23)(c2ccccc2)OC1=O` (stereo not drawn) displayed a TGI of 3.35 µM.

For `CN(C)CCCOc1nc2c(c(=O)n(C)c(=O)n2C)n1C` (tested in a mixture with another compound), the TGI was determined as 48.6 µM.

In turn, `C[N+]1=C2[B-](C(C)(C)C)=[N+](C(C)(C)C)[B-]2(C(C)(C)C)[N+](C)=C2[B-](C(C)(C)C)=[N+](C(C)(C)C)[B-]21C(C)(C)C` (stereo not drawn) came in with a TGI of over 100 µM.

The molecule `Brc1ccc(CCNCCN2CCCCC2)cc1` yielded a TGI of 20.6 µM.

In the case of `OC1C2[C@@H](O)CCCN2C[C@@H](O)[C@H]1O` (stereo partly drawn), the TGI was over 100 µM.

The molecule `COCOC1/C=C/CCCC#C[C@H](C)C(=O)CC1` (stereo partly drawn) displayed a TGI of 21.7 µM.

On to `COc1ccc2[nH]c(O)c(/C=c3/cc4c(c(-c5cc(OC)c(OC)c(OC)c5)n3)=Nc3ccccc3-4)c2c1`, for which the GI50 was 2.47 µM and the TGI turned out to be 77.8 µM.

In turn, `CC[C@]1(Cc2ccc(OC)c(OC)c2)CN(S(=O)(=O)c2ccc(C)cc2)C[C@@H]1OC(C)=O` returned a TGI of over 100 µM.

For `CC(C)(C)c1ccc2c(c1)CNCCNCc1cc(C(C)(C)C)ccc1OCC1(CO2)COc2ccc(C(C)(C)C)cc2CNCCNCc2cc(C(C)(C)C)ccc2OC1`, the TGI was 3.37 µM.
